Like-named read-outs stand apart in the source and are kept apart here.
Tests used:
[1] = biological target: human RORγt ligand binding domain (RORγt LBD) (Homo sapiens (Human), UniProt P51449); test: RORγt ThermoFluor® assay (thermal shift binding); conditions: read-out: ThermoFluor® Assay, Kd
Summary of the method: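 His-tagged human RORγt LBD (0.065 mg/mL) with 60 μM 1,8-ANS in 100 mM Hepes pH 7.0, 10 mM NaCl, 2.5 mM GSH, 0.002% Tween-20 was heated at 1 °C/min.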

[2] = biological target: full-length human RORγt (Homo sapiens (Human), UniProt P51449); test: RORγt (full-length human) reporter assay, Conditions B or C; assay type: cell-based; conditions: for IC50: read-out: RORγt (FL) Reporter Assay B or C, IC50; for inhibition at 3 µM: at 3 μM compound concentration; for RORγt (FL) Reporter Assay B or C, % inhibition (value marked *): marked *: footnote not given
Chain of full-length human RORγt (P51449 other isoform, or with tags, fused parts or gaps): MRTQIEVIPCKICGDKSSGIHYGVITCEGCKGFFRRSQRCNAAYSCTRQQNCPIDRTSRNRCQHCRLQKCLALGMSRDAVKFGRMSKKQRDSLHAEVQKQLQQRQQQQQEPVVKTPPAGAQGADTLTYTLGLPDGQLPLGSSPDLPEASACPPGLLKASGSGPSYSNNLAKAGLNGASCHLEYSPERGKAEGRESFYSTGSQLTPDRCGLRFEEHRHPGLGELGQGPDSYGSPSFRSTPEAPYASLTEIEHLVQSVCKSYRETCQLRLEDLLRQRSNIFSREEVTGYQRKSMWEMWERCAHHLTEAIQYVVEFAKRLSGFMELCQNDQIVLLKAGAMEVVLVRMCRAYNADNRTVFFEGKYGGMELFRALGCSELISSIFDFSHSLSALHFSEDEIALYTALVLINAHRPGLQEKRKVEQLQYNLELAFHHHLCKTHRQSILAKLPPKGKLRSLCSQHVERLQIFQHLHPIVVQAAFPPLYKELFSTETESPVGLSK
Summary of the method: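 HEK293T cells transiently co-transfected with GAL4-DBD–full-length human RORγt (nt 142-1635, NM_001001523.1) plus GAL4-firefly and CMV-Renilla luciferase reporters; compounds added 4-6 h post-transfection for 16-20 h in 1.3% FBS, 0.1% DMSO. Firefly signal normalized to DMSO and saturating reference compound, then to Renilla; IC50 from concentration plots.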

[3] = read-out: RORγt (FL) Reporter Assay B or C, % inhibition

Chain of human RORγt ligand binding domain (RORγt LBD) (P51449 other isoform, or with tags, fused parts or gaps): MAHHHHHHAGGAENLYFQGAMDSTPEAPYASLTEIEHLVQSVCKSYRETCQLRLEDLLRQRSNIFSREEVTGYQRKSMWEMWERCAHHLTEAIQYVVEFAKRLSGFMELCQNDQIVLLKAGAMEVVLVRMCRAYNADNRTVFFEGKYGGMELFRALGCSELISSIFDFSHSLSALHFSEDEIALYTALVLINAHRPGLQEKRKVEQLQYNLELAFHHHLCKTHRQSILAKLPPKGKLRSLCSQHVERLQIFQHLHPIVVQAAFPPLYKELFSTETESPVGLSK

SMILES	Kd [1]	IC50 [2]	inhibition at 3 µM [2, 3]	RORγt (FL) Reporter Assay B or C, % inhibition (value marked *) ([2]; Conditions B or C)	IC50 ([2]; Conditions B or C)	inhibition at 0.33 µM ([2]; at 0.33 μM compound concentration, read-out: RORγt (FL) Reporter Assay B or C, % inhibition)	inhibition at 1 µM ([2]; at 1 μM compound concentration, read-out: RORγt (FL) Reporter Assay B or C, % inhibition)
O=C(NC1CCS(=O)(=O)CC1)c1nc(C(=O)N2C3CCC2CC3)c(-c2cnc(N[C@@H](C3CC3)C(F)(F)F)cc2C(F)F)s1 [Example 436, 4-((1s,4s)-7-Azabicyclo[2.2.1]heptane-7-carbonyl)-5-[6-[[(1S)-1-cyclopropyl-2,2,2-trifluoro-ethyl]amino]-4-(difluoromethyl)-3-pyridyl]-N-(1,1-dioxothian-4-yl)thiazole-2-carboxamide]	1 nM	48 nM					117%
C[C@H]1CCCN1C(=O)c1nc(C(=O)N2CC[C@H](O)C2)sc1-c1cnc(NC(C)(C)C)cc1C(F)(F)F [Example 350, [5-[6-(tert-Butylamino)-4-(trifluoromethyl)-3-pyridyl]-2-[(3S)-3-hydroxypyrrolidine-1-carbonyl]thiazol-4-yl]-[(2S)-2-methylpyrrolidin-1-yl]methanone]	8.3 nM	30 nM	110%				
CC(C)(O)CNC(=O)c1nc(C(=O)N2C3CCC2CC3)c(-c2cnc(NCC3(C(F)(F)F)CCC3)cc2C(F)(F)F)s1 [Example 119, 4-((1s,4s)-7-Azabicyclo[2.2.1]heptane-7-carbonyl)-N-(2-hydroxy-2-methylpropyl)-5-(4-(trifluoromethyl)-6-(((1-(trifluoromethyl)cyclobutyl)methyl)amino)pyridin-3-yl)thiazole-2-carboxamide]	1.5 nM			108* %	17 nM		
C[C@H]1CCCN1C(=O)c1nc(C(=O)N[C@H]2C[C@H](O)C2)sc1-c1cnc(NC2CCCC2)cc1C(F)F [Example 74, 5-(6-(Cyclopentylamino)-4-(difluoromethyl)pyridin-3-yl)-N-((1r,3s)-3-hydroxycyclobutyl)-4-((S)-2-methylpyrrolidine-1-carbonyl)thiazole-2-carboxamide]	73 nM			101* %	32 nM		

More lines, main results first:

Kd [1]	IC50 [2]	inhibition at 3 µM [2, 3]	RORγt (FL) Reporter Assay B or C, % inhibition (value marked *) ([2]; Conditions B or C)	IC50 ([2]; Conditions B or C)	inhibition at 0.33 µM ([2]; at 0.33 μM compound concentration, read-out: RORγt (FL) Reporter Assay B or C, % inhibition)	SMILES	inhibition at 1 µM ([2]; at 1 μM compound concentration, read-out: RORγt (FL) Reporter Assay B or C, % inhibition)
2.3 nM			114* %	39 nM		C[C@H]1CC(F)(F)CN1C(=O)c1nc(C(=O)NCC(C)(C)O)sc1-c1cnc(NC(C)(C)C)cc1C(F)F [Example 143, (S)-5-(6-(tert-Butylamino)-4-(difluoromethyl)pyridin-3-yl)-4-(4,4-difluoro-2-methylpyrrolidine-1-carbonyl)-N-(2-hydroxy-2-methylpropyl)thiazole-2-carboxamide]	
1.9 nM			101* %	24 nM		CC[C@H](Nc1cc(C(F)(F)F)c(-c2sc(C(=O)N[C@@H]3COC[C@H]3O)nc2C(=O)N2CCC[C@@H]2C)cn1)C(F)(F)F [Example 170, N-((3R,4S)-4-Hydroxytetrahydrofuran-3-yl)-4-((2S)-2-methylpyrrolidine-1-carbonyl)-5-(4-(trifluoromethyl)-6-(((1S)-1-(trifluoromethyl)propyl)amino)-3-pyridyl)thiazole-2-carboxamide]	
3.2 nM	5.3 nM				53%	C[C@H](NC(=O)c1nc(C(=O)N2CCC[C@@H]2C)c(-c2cnc(NCC(C)(C)C)cc2C(F)F)s1)C(C)(C)O [Example 344, 5-[4-(Difluoromethyl)-6-(2,2-dimethylpropylamino)-3-pyridyl]-N-[(1S)-2-hydroxy-1,2-dimethyl-propyl]-4-[(2S)-2-methylpyrrolidine-1-carbonyl]thiazole-2-carboxamide]	
2.4 nM			100* %	59 nM		C[C@H]1CCCN1C(=O)c1nc(C(=O)NCC(C)(C)O)sc1-c1cnc(NCC2(C(F)(F)F)CC2)cc1C(F)(F)F [Example 125]	
0.88 nM	19 nM	108%				C[C@H]1CCCN1C(=O)c1nc(C(=O)N[C@H]2CC[C@@H]2O)sc1-c1cnc(NC(C)(C)C)cc1C(F)(F)F (relative stereo) [Example 371, 5-(6-(tert-Butylamino)-4-(trifluoromethyl)pyridin-3-yl)-N-((1S*,2S*)-2-hydroxycyclobutyl)-4-((S)-2-methylpyrrolidine-1-carbonyl)thiazole-2-carboxamide]	

Reference: US10975068B2, “6-aminopyridin-3-yl thiazoles as modulators of RORγT” (Janssen Pharmaceutica NV, priority 2016, dated 2021)
